{
  "source": "paper PMC5218480",
  "about": "(PLoS ONE, 2017)",
  "system": "MV-4-11 cells",
  "experiment": "Gene expression microarray analysis (Affymetrix PrimeView) and GSEA",
  "assay_type": "cell-based, human",
  "design": "RFU PODN (11730768_x_at) / Fold change /veh PODN (11730768_x_at) / RFU LINC00158 (11744669_a_at) / Fold change /veh LINC00158 (11744669_a_at) / RFU DUSP10 (11751237_a_at) / Fold change /veh DUSP10 (11751237_a_at) / RFU ID3 (11757404_x_at) / Fold change /veh ID3 (11757404_x_at) / RFU PLEKHG5 (11737974_s_at) / Fold change /veh PLEKHG5 (11737974_s_at) / RFU LRRC4B (11730491_at) / Fold change /veh LRRC4B (11730491_at) / RFU GIMAP4 (11747438_a_at) / Fold change /veh GIMAP4 (11747438_a_at) / RFU KRT8 (11758183_x_at) / Fold change /veh KRT8 (11758183_x_at) / RFU CNN1 (11734310_a_at) / Fold change /veh CNN1 (11734310_a_at) / RFU VPS37D (11726825_at) / Fold change /veh VPS37D (11726825_at) / RFU C10orf10 (11716522_x_at) / Fold change /veh C10orf10 (11716522_x_at) / RFU KIR2DL2 /// KIR2DL4 /// KIR2DL5A /// KIR2DL5B /// KIR2DS1 /// KIR2DS2 /// KIR2DS3 /// KIR2DS4 /// KIR3DL3 /// KIR3DL3 /// KIR3DS1 (11738374_at) / Fold change /veh KIR2DL2 /// KIR2DL4 /// KIR2DL5A /// KIR2DL5B /// KIR2DS1 /// KIR2DS2 /// KIR2DS3 /// KIR2DS4 /// KIR3DL3 /// KIR3DL3 /// KIR3DS1 (11738374_at) / RFU C1QL1 (11718748_at) / Fold change /veh C1QL1 (11718748_at) / RFU TMPRSS4 (11747572_a_at) / Fold change /veh TMPRSS4 (11747572_a_at) / RFU HAMP (11756126_x_at) / Fold change /veh HAMP (11756126_x_at) / RFU RNFT2 (11725882_a_at) / Fold change /veh RNFT2 (11725882_a_at) / RFU NR4A2 (11747474_a_at) / Fold change /veh NR4A2 (11747474_a_at) / RFU ABCC12 (11746883_a_at) / Fold change /veh ABCC12 (11746883_a_at) / RFU TMEM136 (11760407_x_at) / Fold change /veh TMEM136 (11760407_x_at) / RFU CLDN22 /// WWC2 (11732394_at) / Fold change /veh CLDN22 /// WWC2 (11732394_at) / RFU HLA-DPB1 (11760878_x_at) / Fold change /veh HLA-DPB1 (11760878_x_at) / RFU SPINT1 (11716480_a_at) / Fold change /veh SPINT1 (11716480_a_at) / RFU GAP43 (11754022_s_at) / Fold change /veh GAP43 (11754022_s_at) / RFU A4GNT (11735810_at) / Fold change /veh A4GNT (11735810_at) / RFU PRB3 (11715151_x_at) / Fold change /veh PRB3 (11715151_x_at) / RFU TUBB4B (11761932_at) / Fold change /veh TUBB4B (11761932_at) / RFU CAPN14 (11732068_a_at) / Fold change /veh CAPN14 (11732068_a_at) / RFU TMCC2 (11721928_a_at) / Fold change /veh TMCC2 (11721928_a_at) / RFU IRGQ (11745062_a_at) / Fold change /veh IRGQ (11745062_a_at) / RFU FAM174B (11720279_a_at) / Fold change /veh FAM174B (11720279_a_at) / RFU TMPRSS4 (11748680_a_at) / Fold change /veh TMPRSS4 (11748680_a_at) / RFU FAM212B (11763350_a_at) / Fold change /veh FAM212B (11763350_a_at) / RFU PLEKHG5 (11743358_a_at) / Fold change /veh PLEKHG5 (11743358_a_at) / RFU ZSCAN30 (11745921_a_at) / Fold change /veh ZSCAN30 (11745921_a_at) / RFU CMKLR1 (11741424_a_at) / Fold change /veh CMKLR1 (11741424_a_at) / RFU LOC101060620 /// MAPK8IP1 (11723275_at) / Fold change /veh LOC101060620 /// MAPK8IP1 (11723275_at) / RFU SPTSSB (11747773_x_at) / Fold change /veh SPTSSB (11747773_x_at) / RFU PRSS12 (11739890_at) / Fold change /veh PRSS12 (11739890_at) / RFU BIN1 (11741810_x_at) / Fold change /veh BIN1 (11741810_x_at) / RFU WNT11 (11732464_a_at) / Fold change /veh WNT11 (11732464_a_at) / RFU C10orf10 (11716521_a_at) / Fold change /veh C10orf10 (11716521_a_at) / RFU C5orf56 (11738089_at) / Fold change /veh C5orf56 (11738089_at) / RFU CYB561 (11721691_x_at) / Fold change /veh CYB561 (11721691_x_at) / RFU ANKRD19P (11752326_a_at) / Fold change /veh ANKRD19P (11752326_a_at) / RFU OR2T12 /// OR2T33 /// OR2T8 (11738714_s_at) / Fold change /veh OR2T12 /// OR2T33 /// OR2T8 (11738714_s_at) / RFU VCAN (11748164_a_at) / Fold change /veh VCAN (11748164_a_at) / RFU JSRP1 (11732532_at) / Fold change /veh JSRP1 (11732532_at) / RFU KRTAP10-11 (11738290_x_at) / Fold change /veh KRTAP10-11 (11738290_x_at) / RFU MYO3A (11730013_a_at) / Fold change /veh MYO3A (11730013_a_at) / RFU EBF3 (11725865_a_at) / Fold change /veh EBF3 (11725865_a_at) / RFU CAMK2N1 (11719241_x_at) / Fold change /veh CAMK2N1 (11719241_x_at) / RFU C5orf56 (11738088_a_at) / Fold change /veh C5orf56 (11738088_a_at) / RFU OLFML3 (11715873_a_at) / Fold change /veh OLFML3 (11715873_a_at) / RFU LOC100653217 /// NTM (11731650_a_at) / Fold change /veh LOC100653217 /// NTM (11731650_a_at) / RFU MAPK11 (11762145_a_at) / Fold change /veh MAPK11 (11762145_a_at) / RFU FIZ1 (11724087_x_at) / Fold change /veh FIZ1 (11724087_x_at) / RFU OASL (11726364_x_at) / Fold change /veh OASL (11726364_x_at) / RFU SOX15 (11748057_x_at) / Fold change /veh SOX15 (11748057_x_at) / RFU CD79A (11719716_a_at) / Fold change /veh CD79A (11719716_a_at) / RFU HIST1H1D (11736915_at) / Fold change /veh HIST1H1D (11736915_at) / RFU CASKIN2 (11723855_a_at) / Fold change /veh CASKIN2 (11723855_a_at) / RFU LOC730098 (11760151_x_at) / Fold change /veh LOC730098 (11760151_x_at) / RFU OR4N2 (11742367_at) / Fold change /veh OR4N2 (11742367_at) / RFU PRRT2 (11749266_a_at) / Fold change /veh PRRT2 (11749266_a_at) / RFU SNX32 (11753110_a_at) / Fold change /veh SNX32 (11753110_a_at) / RFU CDHR5 (11726645_a_at) / Fold change /veh CDHR5 (11726645_a_at) / RFU RCAN1 (11760418_a_at) / Fold change /veh RCAN1 (11760418_a_at) / RFU FAM167A (11723789_a_at) / Fold change /veh FAM167A (11723789_a_at) / RFU FAM26E (11764081_at) / Fold change /veh FAM26E (11764081_at) / RFU ISYNA1 (11749810_s_at) / Fold change /veh ISYNA1 (11749810_s_at) / RFU ACY1 (11761880_at) / Fold change /veh ACY1 (11761880_at) / RFU 11764098_at / Fold change /veh 11764098_at / RFU SAMD14 (11745864_x_at) / Fold change /veh SAMD14 (11745864_x_at) / RFU NPB (11741838_a_at) / Fold change /veh NPB (11741838_a_at) / RFU TMPRSS6 (11731388_a_at) / Fold change /veh TMPRSS6 (11731388_a_at) / RFU KRTAP10-2 (11738614_at) / Fold change /veh KRTAP10-2 (11738614_at) / RFU ARHGAP8 /// PRR5-ARHGAP8 (11727945_x_at) / Fold change /veh ARHGAP8 /// PRR5-ARHGAP8 (11727945_x_at) / RFU KRTAP5-7 /// NADSYN1 (11734609_at) / Fold change /veh KRTAP5-7 /// NADSYN1 (11734609_at) / RFU RASL12 (11751679_a_at) / Fold change /veh RASL12 (11751679_a_at) / RFU CDKN2B (11736163_a_at) / Fold change /veh CDKN2B (11736163_a_at) / RFU PRF1 (11729649_at) / Fold change /veh PRF1 (11729649_at) / RFU, ZNF638 /// ZNF638-IT1 / Fold change vs veh, ZNF638 /// ZNF638-IT1 / RFU, PANK3 / Fold change vs veh, PANK3 / RFU, SH3YL1 / Fold change vs veh, SH3YL1 / RFU, ZEB2 / Fold change vs veh, ZEB2 / RFU, NRIP1 / Fold change vs veh, NRIP1 / RFU, PTTG1IP / Fold change vs veh, PTTG1IP / RFU, CAPN2 / Fold change vs veh, CAPN2 / RFU, MED14 / Fold change vs veh, MED14 / RFU, SNORA58 / Fold change vs veh, SNORA58 / RFU, C1orf63 / Fold change vs veh, C1orf63 / RFU, LRRFIP1 / Fold change vs veh, LRRFIP1 / RFU, NDUFAF7 / Fold change vs veh, NDUFAF7 / RFU, SLC12A2 / Fold change vs veh, SLC12A2 / RFU, IBTK / Fold change vs veh, IBTK / RFU, ESF1 / Fold change vs veh, ESF1 / Fold change vs veh, TMEM50B / RFU, TAOK1 / Fold change vs veh, TAOK1 / RFU, ACBD3 / Fold change vs veh, ACBD3 / RFU, TMA16 / Fold change vs veh, TMA16 / RFU, RWDD3 / Fold change vs veh, RWDD3 / RFU, BCAT1 / Fold change vs veh, BCAT1 / RFU, EDEM3 / Fold change vs veh, EDEM3 / RFU, TMEM33 / Fold change vs veh, TMEM33 / RFU, WDR75 / Fold change vs veh, WDR75 / RFU, AHCTF1 / Fold change vs veh, AHCTF1 / RFU, TFRC / Fold change vs veh, TFRC / RFU, ZDHHC17 / Fold change vs veh, ZDHHC17 / RFU, NOM1 / Fold change vs veh, NOM1 / RFU, ARL8B / Fold change vs veh, ARL8B / RFU, ZBTB11 / Fold change vs veh, ZBTB11 / RFU, TAMM41 / Fold change vs veh, TAMM41 / RFU, KIAA1704 /// LOC100996395 / Fold change vs veh, KIAA1704 /// LOC100996395 / RFU, ING1 / Fold change vs veh, ING1 / RFU, TRMT61B / Fold change vs veh, TRMT61B / RFU, FUBP3 / Fold change vs veh, FUBP3 / RFU, TP53 / Fold change vs veh, TP53 / RFU, TNKS2 / Fold change vs veh, TNKS2 / RFU, ZFP14 / Fold change vs veh, ZFP14 / RFU, ACTR2 / Fold change vs veh, ACTR2 / RFU, PPP3R1 / Fold change vs veh, PPP3R1 / RFU, PIK3R1 / Fold change vs veh, PIK3R1 / RFU, HNRNPA1 / Fold change vs veh, HNRNPA1 / RFU, RNF170 / Fold change vs veh, RNF170 / RFU, ZNF28 / Fold change vs veh, ZNF28 / RFU, RNGTT / Fold change vs veh, RNGTT / RFU, OGT / Fold change vs veh, OGT / RFU, BRD1 / Fold change vs veh, BRD1 / RFU, MARS / Fold change vs veh, MARS / RFU, ZNF655 / Fold change vs veh, ZNF655 / RFU, FAHD1 / Fold change vs veh, FAHD1 / RFU, BDP1 / Fold change vs veh, BDP1 / RFU, LRRCC1 / Fold change vs veh, LRRCC1 / RFU, ARID1A / Fold change vs veh, ARID1A / RFU, ZNF146 / Fold change vs veh, ZNF146 / RFU, ZNF330 / Fold change vs veh, ZNF330 / RFU, GPN3 / Fold change vs veh, GPN3 / RFU, C9orf123 / Fold change vs veh, C9orf123 / RFU, N4BP2L2 / Fold change vs veh, N4BP2L2 / RFU, ARFIP1 / Fold change vs veh, ARFIP1 / RFU, FAM179B / Fold change vs veh, FAM179B / RFU, BCL10 / Fold change vs veh, BCL10 / RFU, UHRF1BP1L / Fold change vs veh, UHRF1BP1L / RFU, BET1 / Fold change vs veh, BET1 / RFU, CNOT2 / Fold change vs veh, CNOT2 / RFU, ZNF268 / Fold change vs veh, ZNF268 / Fold change vs veh, ZNF507 / RFU, DGCR2 / Fold change vs veh, DGCR2 / RFU, WDSUB1 / Fold change vs veh, WDSUB1 / Fold change vs veh, HSP90B1 /// MIR3652 / RFU, ADSS / Fold change vs veh, ADSS / RFU, GK / Fold change vs veh, GK / RFU, ZNF148 / Fold change vs veh, ZNF148 / RFU, TAF9 / Fold change vs veh, TAF9 / RFU, SLC1A5 / Fold change vs veh, SLC1A5 / RFU, SLMO2 / Fold change vs veh, SLMO2 / RFU, ABCC4 / Fold change vs veh, ABCC4 / RFU, LOC101060439 /// RAP1B / Fold change vs veh, LOC101060439 /// RAP1B / RFU, RFX7 / Fold change vs veh, RFX7 / RFU, GTPBP10 / Fold change vs veh, GTPBP10 / RFU, CNEP1R1 / Fold change vs veh, CNEP1R1 / RFU, BIVM-ERCC5 /// ERCC5 / Fold change vs veh, BIVM-ERCC5 /// ERCC5 / RFU, ILF3 / Fold change vs veh, ILF3 / RFU 11762660_at / Fold change /veh 11762660_at / RFU VCAN (11757783_s_at) / Fold change /veh VCAN (11757783_s_at) / RFU DDX43 (11728927_at) / Fold change /veh DDX43 (11728927_at) / RFU KRT8 (11758188_x_at) / Fold change /veh KRT8 (11758188_x_at) / RFU NKD1 (11759106_at) / Fold change /veh NKD1 (11759106_at) / RFU SRD5A1 (11742802_a_at) / Fold change /veh SRD5A1 (11742802_a_at) / RFU TPSAB1 /// TPSB2 (11721975_s_at) / Fold change /veh TPSAB1 /// TPSB2 (11721975_s_at) / RFU GSTM3 (11746129_a_at) / Fold change /veh GSTM3 (11746129_a_at) / RFU IL23R (11737362_x_at) / Fold change /veh IL23R (11737362_x_at) / RFU TMEM51 (11727254_a_at) / Fold change /veh TMEM51 (11727254_a_at) / RFU PIWIL2 (11732686_x_at) / Fold change /veh PIWIL2 (11732686_x_at) / RFU ORM1 (11744905_x_at) / Fold change /veh ORM1 (11744905_x_at) / RFU CCDC152 (11743942_at) / Fold change /veh CCDC152 (11743942_at) / RFU ECM1 (11717891_a_at) / Fold change /veh ECM1 (11717891_a_at) / RFU IL23R (11748794_a_at) / Fold change /veh IL23R (11748794_a_at) / RFU TNFAIP8L3 (11732012_x_at) / Fold change /veh TNFAIP8L3 (11732012_x_at) / RFU MBOAT4 (11741988_at) / Fold change /veh MBOAT4 (11741988_at) / RFU 11764193_at / Fold change /veh 11764193_at / RFU TMEM53 (11763286_at) / Fold change /veh TMEM53 (11763286_at) / RFU MAGEB2 (11727129_at) / Fold change /veh MAGEB2 (11727129_at) / RFU TMEM200A (11744735_a_at) / Fold change /veh TMEM200A (11744735_a_at) / RFU CCDC152 (11751479_a_at) / Fold change /veh CCDC152 (11751479_a_at) / RFU FAM211A (11726209_a_at) / Fold change /veh FAM211A (11726209_a_at) / RFU RGS16 (11746705_a_at) / Fold change /veh RGS16 (11746705_a_at) / RFU VCAN (11755009_s_at) / Fold change /veh VCAN (11755009_s_at) / RFU RHOB (11743442_s_at) / Fold change /veh RHOB (11743442_s_at) / RFU RGS16 (11720943_a_at) / Fold change /veh RGS16 (11720943_a_at) / RFU RGS16 (11720944_at) / Fold change /veh RGS16 (11720944_at) / RFU, VPS4B / Fold change vs veh, VPS4B / RFU, CREB1 / Fold change vs veh, CREB1 / RFU, DNAJC13 / Fold change vs veh, DNAJC13 / RFU, GNAQ / Fold change vs veh, GNAQ / RFU, CDK5R1 / Fold change vs veh, CDK5R1 / RFU, ZRANB3 / Fold change vs veh, ZRANB3 / RFU, CUL4A / Fold change vs veh, CUL4A / RFU, CCNY / Fold change vs veh, CCNY / RFU, UFL1 / Fold change vs veh, UFL1 / RFU, COG3 / Fold change vs veh, COG3 / RFU, DIAPH2 / Fold change vs veh, DIAPH2 / RFU, SKA2 / Fold change vs veh, SKA2 / RFU, AFF3 / Fold change vs veh, AFF3 / RFU, LMF1 / Fold change vs veh, LMF1 / RFU, IPO11 / Fold change vs veh, IPO11 / RFU, DFFB / Fold change vs veh, DFFB / RFU, FOXP1 / Fold change vs veh, FOXP1 / RFU, CARD8 / Fold change vs veh, CARD8 / RFU, STRN3 / Fold change vs veh, STRN3 / RFU, ADK / Fold change vs veh, ADK / RFU, RASSF2 / Fold change vs veh, RASSF2 / RFU, WIPF1 / Fold change vs veh, WIPF1 / RFU, LARP1B / Fold change vs veh, LARP1B / RFU, RASA1 / Fold change vs veh, RASA1 / RFU, RB1 / Fold change vs veh, RB1 / RFU, PPFIA1 / Fold change vs veh, PPFIA1 / RFU, MAT2A / Fold change vs veh, MAT2A / RFU, CCT5 / Fold change vs veh, CCT5 / RFU, WDR92 / Fold change vs veh, WDR92 / RFU, CUX1 / Fold change vs veh, CUX1 / RFU, TTC7A / Fold change vs veh, TTC7A / RFU, TMEM135 / Fold change vs veh, TMEM135 / RFU, DEPTOR / Fold change vs veh, DEPTOR / RFU, CPM / Fold change vs veh, CPM / RFU, DNAJB6 / Fold change vs veh, DNAJB6 / RFU, CACNA2D3 / Fold change vs veh, CACNA2D3 / RFU, DTX4 / Fold change vs veh, DTX4 / RFU, TFCP2 / Fold change vs veh, TFCP2 / RFU, GMCL1 /// GMCL1P1 / Fold change vs veh, GMCL1 /// GMCL1P1 / RFU, AEBP2 / Fold change vs veh, AEBP2 / RFU, SNHG1 /// SNORD22 /// SNORD25 /// SNORD26 /// SNORD27 /// SNORD28 /// SNORD29 /// SNORD31 / Fold change vs veh, SNHG1 /// SNORD22 /// SNORD25 /// SNORD26 /// SNORD27 /// SNORD28 /// SNORD29 /// SNORD31 / Fold change (Aza/veh), C12orf56 (ProbeSet 11735607_a_at) / Fold change (ACY-1035/veh), C12orf56 (ProbeSet 11735607_a_at) / Fold change (Aza/veh), FGFR1OP (ProbeSet 11751329_s_at) / Fold change (ACY-1035/veh), FGFR1OP (ProbeSet 11751329_s_at) / Fold change (Aza/veh), VPS36 (ProbeSet 11739960_a_at) / Fold change (ACY-1035/veh), VPS36 (ProbeSet 11739960_a_at) / RFU SYPL1 (11715823_x_at) / Fold change /veh SYPL1 (11715823_x_at) / RFU IGFBP7 (11715501_s_at) / Fold change /veh IGFBP7 (11715501_s_at) / RFU REEP3 (11722064_at) / Fold change /veh REEP3 (11722064_at) / RFU IGLL1 (11728026_x_at) / Fold change /veh IGLL1 (11728026_x_at): dose or concentration left out as unconfirmed",
  "conditions": "MV-4-11 cells, 48 hours",
  "data": [
    {"compound": "Nc1ccc(-c2cccs2)cc1NC(=O)c1ccc2c(c1)cc(C1CC1)n2CCN1CCOCC1", "note": "[ACY-1035]", "values": [
      {"measurement": "RFU RCAN1 (11760418_a_at)", "value": 20.19, "unit": "RFU"}
    ]}
  ]
}
